For assay [1], the target named is T1, FGFR1-GST (Homo sapiens, UniProt P11362).
T1 construct: GST; made in house
The assay is described as follows: FGFR-1 TR-FRET biochemical assay. A digest of the protocol: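 LANCE TR-FRET with 5 nM FGFR1-GST, 0.6 uM ATP, 25 nM biotin-poly GT in HEPES pH 7.5/MgCl2, 1% DMSO; compound added before enzyme, 1 h at room temperature. 665/615 nm ratio, background without ATP; % inhibition over 10 μM–0.128 nM final for IC50.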
A general note: In TR-FRET formats the signal depends on donor and acceptor labels being close together.

Assay [2] relates to histone 3 phosphorylation in colon carcinoma (HCT116). The assay is described as follows: p-Histone3 assay. Format: cell-based. The note with it: Homo sapiens, HCT-116, 24 h, HCT116, 24 hours treatment. As for the experimental part:
Compounds were assayed for the inhibition of histone 3 phosphorylation in colon carcinoma (HCT116). Briefly, 20,000 cells/well were seeded in a 96-well black-walled, poly-d-lysine plates in RPMI+10% FBS and incubated at 37° C. in 5% CO2 overnight. The following day, the cells were treated with compounds for 24 hours at 37° C. Following compound treatment; plates were centrifuged at 1000 rpm for 2 minutes and washed twice with 100 μl of cold sterile TBS. Cells were then fixed with cold 3.7% formaldehyde in TBS (4° C. for 1 hour) and then permeabalized with 0.1% Triton-X-100 in TBS (room temperature for 30 minutes). Plates were then washed with of 0.25% BSA-TBS and blocked with BSA solution for 1 hour at room temperature while shaking. The supernatant was removed and replaced with diluted primary antibody (anti-phospho-histone 3, serine 10, Cell Signaling) at 1:250 in 0.25% BSA-TBS and incubated overnight at 4° C. The plates were washed and treated with diluted secondary antibody (anti-rabbit Eu-labeled) at 1:10000 in 0.25% BSA-TBS (room temperature for 1 hour). The antibody solution was removed from each well and washed eight times. The wash buffer was replaced with 50 μl pre-warmed enhancement solution and mixed on the orbital shaker for 10 minutes. Fluorescence was detected with a Victor V Fluorescence Detector. The data are expressed as percent inhibition: % inhibition=100−((Signal with inhibitor-background)/(Signal without inhibitor-background))×100.

By IC50 is commonly meant the midpoint of a concentration-inhibition curve. Higher therefore signals weaker potency.

T1 sequence (P11362 22-822): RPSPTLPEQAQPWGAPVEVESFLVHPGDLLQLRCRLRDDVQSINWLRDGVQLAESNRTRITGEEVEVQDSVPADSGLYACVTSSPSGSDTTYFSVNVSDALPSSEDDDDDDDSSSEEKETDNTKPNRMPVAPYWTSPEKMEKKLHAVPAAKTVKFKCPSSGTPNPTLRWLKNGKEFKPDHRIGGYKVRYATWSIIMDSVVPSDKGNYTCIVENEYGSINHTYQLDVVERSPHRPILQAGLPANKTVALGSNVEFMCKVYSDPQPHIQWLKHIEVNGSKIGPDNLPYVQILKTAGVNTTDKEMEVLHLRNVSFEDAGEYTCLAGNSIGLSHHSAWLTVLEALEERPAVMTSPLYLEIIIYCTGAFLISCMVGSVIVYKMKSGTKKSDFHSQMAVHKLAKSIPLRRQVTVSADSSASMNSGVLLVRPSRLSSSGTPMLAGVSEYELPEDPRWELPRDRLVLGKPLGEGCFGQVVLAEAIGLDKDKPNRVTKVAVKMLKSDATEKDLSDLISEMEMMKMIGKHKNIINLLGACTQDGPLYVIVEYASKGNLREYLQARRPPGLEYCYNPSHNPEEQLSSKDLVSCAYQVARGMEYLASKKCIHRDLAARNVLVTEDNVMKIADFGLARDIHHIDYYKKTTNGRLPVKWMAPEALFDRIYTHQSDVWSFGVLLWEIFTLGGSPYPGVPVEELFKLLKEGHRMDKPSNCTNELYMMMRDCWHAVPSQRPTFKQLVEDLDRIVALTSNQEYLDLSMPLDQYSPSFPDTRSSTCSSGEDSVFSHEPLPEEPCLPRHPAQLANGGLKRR

For `N#Cc1c(-c2ccc(NC(=O)Nc3cc(C(F)(F)F)ccc3F)cc2)c2c(N)ncnn2c1CN1CCOCC1` [Example 54, N-4-[4-amino-6-cyano-7-(morpholin-4-ylmethyl)pyrrolo[2,1-f][1,2,4]triazin-5-yl]phenyl-N′-[2-fluoro-5-(trifluoromethyl)phenyl]urea], the IC50 in assay [1] (bounds given in nM) was under 10 nM; in assay [2] (bounds given in μM) it was under 5 µM; in assay [2] (lower bound in nM), over 0.5 µM.

`CN(C)Cc1c(C(=O)NCC(F)(F)F)c(-c2ccc(NC(=O)Nc3cccc(C(F)(F)F)n3)cc2)c2c(N)ncnn12` [Example 53, 4-amino-7-[(dimethylamino)methyl]-N-(2,2,2-trifluoroethyl)-5-{-4-[({[6-(trifluoromethyl)-pyridin-2-yl]amino}carbonyl)-amino]phenyl}pyrrolo[2,1-f][1,2,4]triazine-6-carboxamide]: the half-maximal inhibitory concentration (IC50) in assay [2] (bounds given in μM) was under 5 µM; in assay [2] (lower bound in nM), over 0.5 µM.

For the molecule `N#CCc1c(-c2ccc(NC(=O)Nc3cc(C(F)(F)F)ccc3F)c(F)c2)c2c(N)ncnn2c1CN1CCOCC1` [Example 69, N-{4-[4-amino-6-(cyanomethyl)-7-(morpholin-4-ylmethyl)-pyrrolo[2,1-f][1,2,4]triazin-5-yl]-2-fluorophenyl}-N′-[2-fluoro-5-(trifluoromethyl)phenyl]urea], the IC50 in assay [1] (bounds given in nM) was under 10 nM; in assay [2] (bounds given in μM), under 5 µM; in assay [2] (lower bound in nM) it was over 0.5 µM.

With `COCc1c(-c2ccc(NC(=O)Nc3cc(C(F)(F)F)ccc3F)cc2)c2c(N)ncnn2c1CN1CCN(S(C)(=O)=O)CC1` [Example 20, N-[4-(4-amino-6-(methoxymethyl)-7-{[4-(methylsulfonyl)piperazin-1-yl]methyl}pyrrolo[2,1-f][1,2,4]triazin-5-yl)phenyl]-N′-[2-fluoro-5-(trifluoromethyl)phenyl]urea], the half-maximal inhibitory concentration (IC50) in assay [1] (bounds given in nM) was in the range of 10 to 100 nM; in assay [2] (bounds given in μM) it was 5 to 10 µM.

In the case of `Nc1ncnn2c(CN3CCOCC3)c(C(=O)NCC(F)(F)F)c(-c3ccc(NC(=O)Nc4cc(C(F)(F)F)ccc4F)cc3)c12` [Example 9, 4-amino-5-{4-[({[2-fluoro-5-(trifluoromethyl)-phenyl]amino}carbonyl)amino]phenyl}-7-(morpholin-4-ylmethyl)-N-(2,2,2-trifluoroethyl)pyrrolo[2,1-f][1,2,4]triazine-6-carboxamide], the figures for the IC50 in assay [1] (bounds given in nM), in assay [2] (bounds given in μM) and in assay [2] (lower bound in nM) were under 10 nM, under 5 µM and over 0.5 µM, respectively.

For the molecule `Nc1ncnn2c(CN3CCOCC3)c(CO)c(-c3ccc(NC(=O)Nc4cc(C(F)(F)F)ccn4)cc3)c12` [Example 62, N-{4-[4-amino-6-(hydroxymethyl)-7-(morpholin-4-ylmethyl)pyrrolo[2,1-f][1,2,4]triazin-5-yl]phenyl}-N′-[4-(trifluoromethyl)-pyridin-2-yl]urea], the IC50 in assay [1] (bounds given in nM) was 10 to 100 nM; in assay [2] (bounds given in μM) it was 5 to 10 µM.

For the molecule `Nc1ncnn2c(CN3CCOCC3)c(-c3cnco3)c(-c3ccc(NC(=O)Nc4cc(C(F)(F)F)ccn4)c(F)c3)c12` [Example 33, N-4-[4-amino-7-(morpholin-4-ylmethyl)-6-(1,3-oxazol-5-yl)pyrrolo[2,1-f][1,2,4]triazin-5-yl]-2-fluorophenyl-N′-[4-(trifluoromethyl)pyridin-2-yl]urea], the values for the IC50 in assay [1] (bounds given in nM) and in assay [2] (bounds given in μM) were under 10 nM and 5 to 10 µM, respectively.

On to `CCC(=O)c1c(-c2ccc(NC(=O)Nc3cc(C(F)(F)F)ccn3)cc2)c2c(N)ncnn2c1CN1CCOCC1` [Example 90, N-{4-[4-amino-7-(morpholin-4-ylmethyl)-6-propionylpyrrolo[2,1-f][1,2,4]triazin-5-yl]phenyl}-N′-[4-(trifluoromethyl)-pyridin-2-yl]urea], for which the IC50 in assay [1] (bounds given in nM) was 10 to 100 nM.

`COCc1c(-c2ccc(NC(=O)Nc3cc(C(F)(F)F)ccc3Cl)c(F)c2)c2c(N)ncnn2c1CN1CCOCC1` [Example 142, N-{4-[4-amino-6-(methoxymethyl)-7-(morpholin-4-ylmethyl)-pyrrolo[2,1-f][1,2,4]triazin-5-yl]-2-fluorophenyl}-N′-[2-chloro-5-(trifluoromethyl)phenyl]urea] registered an IC50 in assay [1] (bounds given in nM) of 10 to 100 nM.

Consider `Cc1cc(-c2c(C)c(CN3CCCOCC3)n3ncnc(N)c23)ccc1NC(=O)Nc1cc(C(F)(F)F)ccn1` [Example 124, N-{4-[4-amino-6-methyl-7-(1,4-oxazepan-4-ylmethyl)pyrrolo[2,1-f][1,2,4]triazin-5-yl]-2-methylphenyl}-N′-[4-(trifluoromethyl)pyridin-2-yl]urea], for which, in assay [1] (bounds given in nM), the IC50 is under 10 nM.

The molecule `Nc1ncnn2c(CN3CCOCC3)c(C(=O)C3CC3)c(-c3ccc(NC(=O)Nc4cc(C(F)(F)F)ccn4)cc3)c12` [Example 89, N-{4-[4-amino-6-(cyclopropylcarbonyl)-7-(morpholin-4-ylmethyl)pyrrolo[2,1-f][1,2,4]triazin-5-yl]phenyl}-N′-[4-(trifluoromethyl)pyridin-2-yl]urea] had an IC50 in assay [1] (bounds given in nM) of 10 to 100 nM.

On to `COCc1c(-c2ccc(NC(=O)Nc3cc(C(F)(F)F)ccn3)c(C)c2)c2c(N)ncnn2c1CN1CCOCC1` [Example 145, N-4-[4-amino-6-(methoxymethyl)-7-(morpholin-4-ylmethyl)pyrrolo[2,1-f][1,2,4]triazin-5-yl]-2-methylphenyl-N′-[4-(trifluoromethyl)pyridin-2-yl]urea], for which, in assay [1] (bounds given in nM), the IC50 was under 10 nM.

Consider `Nc1ncnn2c(CN3CCOCC3)c(-c3cnco3)c(-c3ccc(NC(=O)Nc4cccc(OC(F)(F)F)c4)cc3)c12` [Example 28, N-4-[4-amino-7-(morpholin-4-ylmethyl)-6-(1,3-oxazol-5-yl)pyrrolo[2,1-f][1,2,4]triazin-5-yl]phenyl-N′-[3-(trifluoromethoxy)-phenyl]urea], for which the IC50 in assay [1] (bounds given in nM) was under 10 nM.

With `CC(=O)c1c(-c2ccc(NC(=O)Nc3cc(C(F)(F)F)ccn3)c(F)c2)c2c(N)ncnn2c1CN1CCOCC1` [Example 60, N-4-[6-acetyl-4-amino-7-(morpholin-4-ylmethyl)pyrrolo[2,1-f][1,2,4]triazin-5-yl]-2-fluorophenyl-N′-[4-(trifluoromethyl)pyridin-2-yl]urea], in assay [1] (bounds given in nM), the IC50 was under 10 nM.

`CC(=O)c1c(-c2ccc(NC(=O)Nc3cc(C(F)(F)F)ccn3)cc2)c2c(N)ncnn2c1CN1CCN(C)CC1` [Example 96, N-(4-{6-acetyl-4-amino-7-[(4-methylpiperazin-1-yl)methyl]pyrrolo[2,1-f][1,2,4]triazin-5-yl}phenyl)-N′-[4-(trifluoromethyl)-pyridin-2-yl]urea] gave an IC50 in assay [1] (bounds given in nM) of 10 to 100 nM.

For `COCc1c(-c2ccc(NC(=O)Nc3cc(C(F)(F)F)ccc3F)c(F)c2)c2c(N)ncnn2c1C1CCN(C(=O)N(C)C)CC1` [Example 150, 4-{4-amino-5-[3-fluoro-4-({[2-fluoro-5-(trifluoromethyl)-phenyl]carbamoyl}amino)phenyl]-6-(methoxymethyl)-pyrrolo[2,1f][1,2,4]-triazin-7-yl}-N,N-dimethylpiperidine-1-carboxamide], the half-maximal inhibitory concentration (IC50) is over 100 nM in assay [1] (bounds given in nM) and under 1000 nM in assay [1] (upper bound in μM).

`Nc1ncnn2c(CN3CCOCC3)c(-c3cnco3)c(-c3ccc(NC(=O)Nc4cc(C(F)(F)F)ccc4F)cc3)c12` [Example 26, N-4-[4-amino-7-(morpholin-4-ylmethyl)-6-(1,3-oxazol-5-yl)pyrrolo[2,1-f][1,2,4]triazin-5-yl]phenyl-N′-[2-fluoro-5-(trifluoromethyl)phenyl]urea] returned an IC50 in assay [1] (bounds given in nM) of under 10 nM.

Values taken from US8829185B2 (Bayer HealthCare LLC, priority 2005, dated 2014).
